{
  "source": "paper PMC6099747",
  "about": "“New Tetrahydroisoquinoline Derivatives Overcome Pgp Activity in Brain-Blood Barrier and Glioblastoma Multiforme in Vitro” (Molecules : A Journal of Synthetic Chemistry and Natural …, 2018)",
  "key": {"Caco-2 cells monolayer": {"test_system": "Caco-2 cells monolayer", "set-up": "method as in PMID 27336199, PMID 26797828", "settings": "cited from earlier work"}, "Pgp [1]": {"target": "T1, Pgp (Homo sapiens, UniProt P08183)", "T1 construct": "expressed in transfected cells; host or cells: MDCK (Madin-Darby Canine Kidney) cells, gift of Dr. Maria Alessandra Contino, University of Bari", "T1 sequence (P08183 whole entry)": "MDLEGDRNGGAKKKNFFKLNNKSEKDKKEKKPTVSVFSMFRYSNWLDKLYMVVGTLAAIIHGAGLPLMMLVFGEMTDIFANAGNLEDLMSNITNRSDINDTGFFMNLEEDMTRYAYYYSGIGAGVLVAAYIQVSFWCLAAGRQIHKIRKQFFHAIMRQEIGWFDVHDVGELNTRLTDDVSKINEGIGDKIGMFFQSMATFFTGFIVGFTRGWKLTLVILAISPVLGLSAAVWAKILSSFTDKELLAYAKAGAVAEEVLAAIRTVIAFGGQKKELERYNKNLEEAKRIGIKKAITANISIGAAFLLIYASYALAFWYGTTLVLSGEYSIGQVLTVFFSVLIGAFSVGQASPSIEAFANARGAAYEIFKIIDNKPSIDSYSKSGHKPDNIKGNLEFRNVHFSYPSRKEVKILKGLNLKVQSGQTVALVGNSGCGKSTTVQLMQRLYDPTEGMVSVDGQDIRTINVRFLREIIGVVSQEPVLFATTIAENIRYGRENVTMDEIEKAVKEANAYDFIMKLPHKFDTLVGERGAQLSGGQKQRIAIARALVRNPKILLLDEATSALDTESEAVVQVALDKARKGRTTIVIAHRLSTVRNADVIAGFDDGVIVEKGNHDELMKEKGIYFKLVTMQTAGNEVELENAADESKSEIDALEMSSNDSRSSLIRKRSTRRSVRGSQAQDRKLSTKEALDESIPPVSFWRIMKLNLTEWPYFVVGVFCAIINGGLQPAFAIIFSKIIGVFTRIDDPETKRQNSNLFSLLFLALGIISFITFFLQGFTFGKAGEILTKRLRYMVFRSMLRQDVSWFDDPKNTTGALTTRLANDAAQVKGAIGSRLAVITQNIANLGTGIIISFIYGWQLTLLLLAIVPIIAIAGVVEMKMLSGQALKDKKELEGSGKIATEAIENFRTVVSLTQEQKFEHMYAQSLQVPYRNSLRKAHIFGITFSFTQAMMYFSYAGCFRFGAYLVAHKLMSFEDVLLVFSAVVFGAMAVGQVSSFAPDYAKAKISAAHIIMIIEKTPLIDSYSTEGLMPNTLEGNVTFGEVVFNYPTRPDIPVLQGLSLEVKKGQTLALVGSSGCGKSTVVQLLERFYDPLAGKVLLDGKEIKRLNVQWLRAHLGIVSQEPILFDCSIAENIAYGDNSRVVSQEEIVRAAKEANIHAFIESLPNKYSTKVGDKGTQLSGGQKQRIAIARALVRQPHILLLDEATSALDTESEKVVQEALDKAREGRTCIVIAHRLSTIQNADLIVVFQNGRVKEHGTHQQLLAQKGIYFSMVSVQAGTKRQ", "set-up": "method as in PMID 27336199, PMID 26797828", "settings": "cited from earlier work"}, "hCMEC/D3 cells": {"test_system": "hCMEC/D3 cells", "assay": "Transendothelial electrical resistance (TEER) of BBB monolayer", "format": "cell-based, human", "settings": "24 h"}, "Pgp [2]": {"target": "T1, Pgp", "assay": "Doxorubicin transport across Pgp-MDCK monolayer", "format": "cell-based", "settings": "1 nM compound 24 h, 5 μM doxorubicin last 3 h", "protocol": "(§1) MDCK, Pgp-MDCK, MRP1-MDCK and BCRP-MDCK cells were a kind gift of Dr. Maria Alessandra Contino (Department of Pharmacy, University of Bari, Italy). Culture and seeding conditions for doxorubicin transport assay were carried out as reported in [37].\n(§2) Supplementary Figure S3. Effects of Pgp ligands on doxorubicin transport in Pgp-MDCK,\n(§3) MRP1-MDCK and BCRP-MDCK cells\nA. MDCK, Pgp-MDCK, MRP1-MDCK, BCRP-MDCK cells were lysed and immunoblotted with […]"}, "MRP1": {"target": "T2, MRP1 (Homo sapiens, UniProt P33527)", "T2 construct": "expressed in transfected cells; host or cells: MDCK (Madin-Darby Canine Kidney) cells, gift of Dr. Maria Alessandra Contino, University of Bari", "T2 sequence (P33527 whole entry)": "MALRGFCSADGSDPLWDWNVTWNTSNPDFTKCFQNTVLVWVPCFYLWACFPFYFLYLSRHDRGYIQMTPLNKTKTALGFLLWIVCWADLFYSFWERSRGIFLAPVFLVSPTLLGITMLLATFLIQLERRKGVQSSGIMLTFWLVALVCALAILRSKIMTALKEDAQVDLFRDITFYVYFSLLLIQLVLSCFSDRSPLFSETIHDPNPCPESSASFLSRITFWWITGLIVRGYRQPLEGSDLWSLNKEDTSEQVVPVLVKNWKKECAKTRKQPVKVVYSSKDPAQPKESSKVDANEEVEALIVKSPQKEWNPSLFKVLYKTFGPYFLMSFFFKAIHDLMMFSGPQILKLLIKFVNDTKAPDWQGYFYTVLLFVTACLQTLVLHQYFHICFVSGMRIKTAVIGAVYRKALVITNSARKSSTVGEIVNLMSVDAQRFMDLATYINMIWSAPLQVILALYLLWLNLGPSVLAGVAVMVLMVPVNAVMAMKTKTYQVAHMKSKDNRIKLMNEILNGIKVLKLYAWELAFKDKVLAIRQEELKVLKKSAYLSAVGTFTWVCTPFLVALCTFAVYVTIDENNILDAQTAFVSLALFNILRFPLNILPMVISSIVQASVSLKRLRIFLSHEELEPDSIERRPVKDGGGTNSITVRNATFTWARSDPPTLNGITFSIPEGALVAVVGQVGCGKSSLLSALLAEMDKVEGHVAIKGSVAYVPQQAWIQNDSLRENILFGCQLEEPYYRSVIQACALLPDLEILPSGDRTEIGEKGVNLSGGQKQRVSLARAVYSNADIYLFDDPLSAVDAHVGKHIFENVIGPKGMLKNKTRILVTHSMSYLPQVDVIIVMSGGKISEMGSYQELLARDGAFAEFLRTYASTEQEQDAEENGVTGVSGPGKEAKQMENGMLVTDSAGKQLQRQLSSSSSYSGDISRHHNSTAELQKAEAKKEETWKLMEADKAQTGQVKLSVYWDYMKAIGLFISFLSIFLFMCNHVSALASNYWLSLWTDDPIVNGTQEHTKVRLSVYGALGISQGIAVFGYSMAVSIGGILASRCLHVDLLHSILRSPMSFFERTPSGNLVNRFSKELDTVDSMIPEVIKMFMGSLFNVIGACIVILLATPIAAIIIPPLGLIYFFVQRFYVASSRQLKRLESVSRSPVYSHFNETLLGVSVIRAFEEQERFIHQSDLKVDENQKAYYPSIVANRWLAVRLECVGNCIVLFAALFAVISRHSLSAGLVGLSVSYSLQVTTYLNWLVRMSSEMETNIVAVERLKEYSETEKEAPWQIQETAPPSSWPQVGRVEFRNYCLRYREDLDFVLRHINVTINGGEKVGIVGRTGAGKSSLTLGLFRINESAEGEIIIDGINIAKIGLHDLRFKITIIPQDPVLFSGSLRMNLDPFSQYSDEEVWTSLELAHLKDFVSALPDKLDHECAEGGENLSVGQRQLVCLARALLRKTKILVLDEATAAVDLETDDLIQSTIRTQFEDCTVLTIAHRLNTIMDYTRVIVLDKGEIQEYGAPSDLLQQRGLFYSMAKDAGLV", "assay": "Doxorubicin transport across MRP1-MDCK monolayer", "format": "cell-based", "settings": "1 nM compound 24 h, 5 μM doxorubicin last 3 h", "protocol": "as §1, §2, §3\n(§4) A. MDCK, Pgp-MDCK, MRP1-MDCK, BCRP-MDCK cells were lysed and immunoblotted with\n(§5) h. When indicated, 50 μM verapamil (ver), an inhibitor of Pgp, 25 μM MK571, an inhibitor of […]"}, "BCRP": {"target": "T3, BCRP (Homo sapiens, UniProt Q9UNQ0)", "T3 construct": "expressed in transfected cells; host or cells: MDCK (Madin-Darby Canine Kidney) cells, gift of Dr. Maria Alessandra Contino, University of Bari", "T3 sequence (Q9UNQ0 1-655)": "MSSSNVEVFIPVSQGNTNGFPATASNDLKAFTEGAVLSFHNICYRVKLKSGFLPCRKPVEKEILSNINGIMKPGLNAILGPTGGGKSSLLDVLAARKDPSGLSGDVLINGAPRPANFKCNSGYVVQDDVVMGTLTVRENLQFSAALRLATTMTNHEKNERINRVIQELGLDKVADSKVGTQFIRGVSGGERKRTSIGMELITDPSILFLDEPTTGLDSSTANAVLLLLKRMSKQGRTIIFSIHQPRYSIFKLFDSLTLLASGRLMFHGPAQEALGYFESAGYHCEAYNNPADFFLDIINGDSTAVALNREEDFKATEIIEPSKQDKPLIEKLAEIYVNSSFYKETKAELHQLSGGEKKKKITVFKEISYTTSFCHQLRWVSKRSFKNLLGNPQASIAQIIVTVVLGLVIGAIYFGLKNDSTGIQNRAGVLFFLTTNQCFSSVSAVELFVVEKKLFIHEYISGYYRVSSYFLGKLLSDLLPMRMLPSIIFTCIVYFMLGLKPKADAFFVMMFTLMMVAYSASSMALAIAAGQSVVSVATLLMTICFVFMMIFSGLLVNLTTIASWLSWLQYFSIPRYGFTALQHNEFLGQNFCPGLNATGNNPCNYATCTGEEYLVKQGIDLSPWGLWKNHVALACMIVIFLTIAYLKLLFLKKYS", "assay": "Doxorubicin transport across BCRP-MDCK monolayer", "format": "cell-based", "settings": "1 nM compound 24 h, 5 μM doxorubicin last 3 h", "protocol": "as §1, §2, §3, §4, §5"}, "Pgp [3]": {"target": "T1, Pgp", "settings": "Pgp activity, calcein-AM transport; cited from earlier work"}, "hCMEC/D3 cells monolayer [4]": {"test_system": "hCMEC/D3 cells monolayer", "assay": "Doxorubicin delivery across BBB monolayer (Transwell)", "settings": "25 μM MK571 or 5 μM fumitremorgin C alone, 5 μM doxorubicin 3 h", "experimental": "Cells were seeded at 50,000/cm² density, and grown for 7 days up to confluence in 6-well Transwell devices (0.4 μm diameter pores-size, Transwell insert surface: 4.67 cm^2; Corning Life Sciences, Chorges, France for transport assays) or 24-well Transwell devices (0.4 μm diameter pores-size, Transwell insert surface: 0.33 cm^2; Corning Life Sciences, for TEER measurements), to allow the formation of a competent BBB. […] TEER was measured using a Voltohmetro Millicell-ERS (Millipore, Bedford, MA, USA), according to the manufacturer’s instructions. […] This value was subtracted from each value obtained in the presence of the cells.\n(A) Human cellular microvascular endothelial cells/D3 clone hCMEC/D3 cells were grown in the upper insert of Transwell devices for 7 days. […] Cell viability was measured by a chemiluminescence-based assay, in triplicates. Data are presented as means ± SD (n = 4). […] (B) hCMEC/D3 cells were grown in the upper insert of Transwell devices for 7 days. […] Cells were lysed and immunoblotted with the indicated antibodies. β-Tubulin level was used as control of equal protein loading. […] The amount of doxorubicin in the medium of the lower chamber was measured spectrofluorimetrically, in duplicates. […]\ndoxorubicin in the medium of the lower chamber was measured spectrofluorimetrically, in […]"}, "[5]": {"test_system": "primary human GB adherent cells (AC)", "assay": "Cytotoxicity (LDH release, caspase 3 activity, cell viability) in glioblastoma adherent cells", "format": "cell-based", "settings": "5 µM doxorubicin alone", "protocol": "Cell viability was evaluated by ATPLite kit (PerkinElmer), as per manufacturer’s instructions. The results were expressed as percentage of viable cells in each experimental condition versus untreated cells (considered 100%).\nThe release of LDH in cell supernatant was measured as reported in [16], using a Synergy HT microplate reader. Both intracellular and extracellular enzyme activities were expressed as μmol NADH oxidized/min/dish, then extracellular LDH activity was calculated as percentage of the total LDH activity. For cytotoxicity assays in co-cultures, 5 μM doxorubicin, alone or in the presence of compounds, was added to the upper chamber of Transwell inserts. After 24 h, both cell culture medium and GB cells from the lower chamber were collected, and checked for the activity of LDH, as described above.\nThe activity of caspase 3, taken as an index of apoptosis, was measured by incubating 20 µg of cell lysates, collected from GB cells or GB cells growing under BBB monolayer, as reported above, with the fluorogenic substrate of caspase 3 DEVD-7-amino-4-methylcumarine (DEVD-AMC), as reported in [11]. Results were expressed as nmoles AMC/mg proteins, using a calibration curve previously set.\nFigure 3 Effects of Pgp ligands on doxorubicin cytotoxicity in glioblastoma cells. Adherent cells (AC) or neurospheres (NS) from glioblastoma samples were grown for 24 h (panel A–B) or 48 h (panel C) in fresh medium (ctrl) or in the presence of 1 nM of compounds 1–6. When indicated, 5 µM doxorubicin (doxo) was co-incubated. (A) The cell culture supernatant was checked spectrophotometrically for the extracellular activity of LDH, in duplicates. Pooled data of patients 1-3 are presented as means ± SD (n = 3). Vs. AC ctrl: * p < 0.001; vs. NS ctrl: ° p < 0.001; vs. NS doxo: ^# p < 0.001. (B) The activity of caspase 3 was measured fluorimetrically, in duplicates. Data are means ± SD (n = 3). Pooled data of patients 1–3 are presented as means ± SD (n = 3). Vs. AC ctrl: * p < 0.001; vs. NS ctrl: ° p < 0.01; vs. NS doxo: ^# p < 0.05. […] Pooled data of patients 1-3 are presented as means ± SD (n = 3). […]"}, "hCMEC/D3 cells monolayer [6]": {"test_system": "hCMEC/D3 cells monolayer", "assay": "Permeability of dextran-FITC, sucrose, inulin and lucifer yellow across BBB monolayer"}},
  "note": "Like-named read-outs stand apart in the source and are kept apart here.",
  "data": [
    {"compound": "COc1cc2c(cc1OC)CN(Cc1ccc(-c3ccc(O)cc3)cc1)CC2", "note": "[7 (MC70), 4′-(6,7-Dimethoxy-3,4-dihydro-1H-isoquinolin-2-ylmethyl)biphenyl-4-ol]", "values": [
      {"measurement": "apparent permeability ratio", "setting": "Caco-2 cells monolayer", "result": "< 2"},
      {"measurement": "ATP depletion", "setting": "Pgp [1]", "result": "does not induce ATP depletion"}
    ]},
    {"compound": "CCCCOc1ccc(-c2ccc(CN3CCc4cc(OC)c(OC)cc4C3)cc2)cc1", "note": "[Compound 6]", "values": [
      {"measurement": "TEER (Ω cm^2) Compound 1 nM", "setting": "hCMEC/D3 cells; 1 nM compound", "result": "33 ± 2 Ω cm^2"},
      {"measurement": "TEER (Ω cm^2) Compound 100 nM", "setting": "hCMEC/D3 cells; 100 nM compound", "result": "31 ± 4 Ω cm^2"},
      {"measurement": "doxorubicin permeability across Pgp-MDCK monolayer", "setting": "Pgp [2]", "result": "did not change"},
      {"measurement": "doxorubicin delivery across MRP1-MDCK cells", "setting": "MRP1", "result": "strongly reduced"},
      {"measurement": "doxorubicin delivery across BCRP-MDCK cells", "setting": "BCRP", "result": "strongly reduced"},
      {"measurement": "EC50", "setting": "Pgp [3]", "result": 5.2, "unit": "nM"}
    ]},
    {"compound": "CN(C)C(=O)CCSC(SCCC(=O)O)c1cccc(/C=C/c2ccc3ccc(Cl)cc3n2)c1", "note": "(stereo not drawn) [MK571]", "values": [
      {"measurement": "doxorubicin delivery across hCMEC/D3 cells monolayer", "setting": "hCMEC/D3 cells monolayer [4]", "result": "increased"}
    ]},
    {"compound": "COc1cccc2c1C(=O)c1c(O)c3c(c(O)c1C2=O)C[C@@](O)(C(=O)CO)C[C@@H]3O[C@H]1C[C@H](N)[C@H](O)[C@H](C)O1", "note": "[doxorubicin]", "values": [
      {"measurement": "LDH release", "setting": "[5]; 24 h", "result": "increased"},
      {"measurement": "caspase 3 activity", "setting": "[5]; 24 h", "result": "increased"},
      {"measurement": "cell viability", "setting": "[5]; 48 h", "result": "decreased"}
    ]},
    {"compound": "COc1ccc2c3c([nH]c2c1)[C@H](C=C(C)C)N1C(=O)[C@@H]2CCCN2C(=O)[C@@H]1C3", "note": "[fumitremorgin C]", "values": [
      {"measurement": "doxorubicin delivery across hCMEC/D3 cells monolayer", "setting": "hCMEC/D3 cells monolayer [4]", "result": "increased"}
    ]},
    {"compound": "[^14C]-inulin", "values": [
      {"measurement": "permeability coefficient across BBB monolayer", "setting": "hCMEC/D3 cells monolayer [6]; hCMEC/D3 monolayer without compounds, 3 h", "result": "0.45 ± 0.07 × 10^−3 cm·min^−1"}
    ]},
    {"compound": "lucifer yellow", "values": [
      {"measurement": "permeability coefficient across BBB monolayer", "setting": "hCMEC/D3 cells monolayer [6]", "result": "0.43 ± 0.11 × 10^−3 cm·min^−1"}
    ]}
  ]
}
